Measured values as given in ChEMBL document CHEMBL1201862, “PubChem BioAssay data set” (2004).
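Interpolation was linear, between the two tested concentrations surrounding the appropriate level; five concentrations were tested over 48 hours in 96-well plates. GI50: concentration for 50% inhibition of growth.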 Calls of active or inactive are those of the source. No stated cut-off is given here; in the data, active = GI50 up to about 1.1 µM and inactive = higher.

Key:
Test in all cases: growth of human tumour cells (NCI), 48 h
[1] = test system: SK-MEL-2
[2] = test system: NCI/ADR-RES
[3] = test system: A498
[4] = test system: ACHN
[5] = test system: OVCAR-5
[6] = test system: OVCAR-4
[7] = test system: SF-539
[8] = test system: SF-295
[9] = test system: SK-MEL-28
[10] = test system: MCF7
[11] = test system: U-251
[12] = test system: HCT-15
[13] = test system: K562
[14] = test system: PC-3
[15] = test system: DU-145
[16] = test system: HOP-92
[17] = test system: Hs-578T
[18] = test system: SNB-75
[19] = test system: MOLT-4
[20] = test system: HOP-62

## O=c1[nH]nc(Cc2ccc([N+](=O)[O-])cc2)n1CCO
[1]
  GI50: > 100 µM (inactive)
[2]
  GI50: > 100 µM (inactive)
[3]
  GI50: > 100 µM (inactive)
[4]
  GI50: > 100 µM (inactive)
[5]
  GI50: > 100 µM (inactive)
[6]
  GI50: > 100 µM (inactive)
[7]
  GI50: > 100 µM (inactive)
[8]
  GI50: > 100 µM (inactive)
[9]
  GI50: > 100 µM (inactive)
[10]
  GI50: > 100 µM (inactive)
[11]
  GI50: > 100 µM (inactive)
[12]
  GI50: > 100 µM
[13]
  GI50: > 100 µM (inactive)
[14]
  GI50: > 100 µM (inactive)
[15]
  GI50: > 100 µM (inactive)
[16]
  GI50: > 100 µM (inactive)
[17]
  GI50: > 100 µM (inactive)

## Cn1cc2c(=O)n3ncn(-c4ccc(Br)cc4)c3nc2n1
[1]
  GI50: > 100 µM (inactive)
[2]
  GI50: > 100 µM (inactive)
[3]
  GI50: > 100 µM (inactive)
[4]
  GI50: > 100 µM (inactive)
[5]
  GI50: > 100 µM (inactive)
[6]
  GI50: > 100 µM (inactive)
[7]
  GI50: > 100 µM (inactive)
[8]
  GI50: > 100 µM (inactive)
[9]
  GI50: > 100 µM (inactive)
[18]
  GI50: > 100 µM (inactive)
[10]
  GI50: > 100 µM (inactive)
[11]
  GI50: > 100 µM (inactive)
[12]
  GI50: > 100 µM
[19]
  GI50: > 100 µM (inactive)
[13]
  GI50: > 100 µM (inactive)
[14]
  GI50: > 100 µM (inactive)
[15]
  GI50: > 100 µM (inactive)
[16]
  GI50: > 100 µM (inactive)
[17]
  GI50: > 100 µM (inactive)

## COc1cc(C2C(Cl)C(=O)N2c2ccc(Br)cc2)cc(I)c1O (stereo unspecified)
[1]
  GI50: 65.8 µM (inactive)
[20]
  GI50: 37.4 µM (inactive)
[2]
  GI50: 33.5 µM (inactive)
[3]
  GI50: > 100 µM (inactive)
[4]
  GI50: 33.5 µM (inactive)
[5]
  GI50: 87.7 µM (inactive)
[6]
  GI50: 70.5 µM (inactive)
[7]
  GI50: > 100 µM (inactive)
[8]
  GI50: 35.4 µM (inactive)
[18]
  GI50: 37.8 µM (inactive)
[10]
  GI50: 87.9 µM (inactive)
[11]
  GI50: > 100 µM (inactive)
[12]
  GI50: 23.8 µM
[19]
  GI50: 27.5 µM (inactive)
[13]
  GI50: 7.21 µM (inactive)
[14]
  GI50: > 100 µM (inactive)
[15]
  GI50: > 100 µM (inactive)
[17]
  GI50: 59.6 µM (inactive)

## COc1ccc(C=C2C(=O)NC(=S)NC2=O)c2ccccc12
[1]
  GI50: 21.2 µM (inactive)
[20]
  GI50: 30.4 µM (inactive)
[2]
  GI50: 26.7 µM (inactive)
[3]
  GI50: 0.224 µM (active)
[4]
  GI50: 97.5 µM (inactive)
[5]
  GI50: 5.13 µM (inactive)
[6]
  GI50: > 100 µM (inactive)
[7]
  GI50: 22 µM (inactive)
[8]
  GI50: 31.3 µM (inactive)
[9]
  GI50: 57.8 µM (inactive)
[10]
  GI50: 22.5 µM (inactive)
[11]
  GI50: 27.6 µM (inactive)
[12]
  GI50: 33.1 µM
[19]
  GI50: 83.2 µM (inactive)
[13]
  GI50: 43.4 µM (inactive)
[14]
  GI50: 26.2 µM (inactive)
[15]
  GI50: 23.8 µM (inactive)
[16]
  GI50: > 100 µM (inactive)
[17]
  GI50: 28.2 µM (inactive)

## COc1cc2c(cc1O)-c1c(OC)c(O)cc3c1C(C2)N(C)CC3 (stereo unspecified)
[1]
  GI50: > 100 µM (inactive)
[2]
  GI50: > 100 µM (inactive)
[3]
  GI50: > 100 µM (inactive)
[4]
  GI50: > 100 µM (inactive)
[5]
  GI50: > 100 µM (inactive)
[6]
  GI50: > 100 µM (inactive)
[7]
  GI50: > 100 µM (inactive)
[8]
  GI50: > 100 µM (inactive)
[18]
  GI50: > 100 µM (inactive)
[10]
  GI50: > 100 µM (inactive)
[11]
  GI50: > 100 µM (inactive)
[12]
  GI50: > 100 µM
[19]
  GI50: > 100 µM (inactive)
[14]
  GI50: > 100 µM (inactive)
[15]
  GI50: > 100 µM (inactive)
[16]
  GI50: > 100 µM (inactive)
[17]
  GI50: > 100 µM (inactive)

## O=C(Nc1ccc(Cl)cc1)c1cc2c(cc1Cl)Sc1nccn1S2(=O)=O
[1]
  GI50: > 100 µM (inactive)
[20]
  GI50: 33.7 µM (inactive)
[2]
  GI50: 56.5 µM (inactive)
[3]
  GI50: 29.6 µM (inactive)
[4]
  GI50: 75.5 µM (inactive)
[5]
  GI50: > 100 µM (inactive)
[6]
  GI50: 37.3 µM (inactive)
[7]
  GI50: 50.2 µM (inactive)
[8]
  GI50: 29.2 µM (inactive)
[9]
  GI50: 40.5 µM (inactive)
[18]
  GI50: 3.4 µM (inactive)
[10]
  GI50: 69.3 µM (inactive)
[11]
  GI50: 10.7 µM (inactive)
[12]
  GI50: 35.7 µM
[19]
  GI50: 27.9 µM (inactive)
[13]
  GI50: 14.1 µM (inactive)
[14]
  GI50: 85.3 µM (inactive)
[15]
  GI50: > 100 µM (inactive)
[17]
  GI50: 33.8 µM (inactive)

## COC(=O)C1(C#N)C(C)(C)N=C(c2ccccc2)C12CCCCC2 (stereo unspecified)
[1]
  GI50: > 100 µM (inactive)
[20]
  GI50: > 100 µM (inactive)
[2]
  GI50: > 100 µM (inactive)
[3]
  GI50: > 100 µM (inactive)
[5]
  GI50: > 100 µM (inactive)
[6]
  GI50: > 100 µM (inactive)
[7]
  GI50: > 100 µM (inactive)
[8]
  GI50: 56.4 µM (inactive)
[9]
  GI50: 82 µM (inactive)
[10]
  GI50: > 100 µM (inactive)
[11]
  GI50: > 100 µM (inactive)
[12]
  GI50: > 100 µM
[19]
  GI50: 45.9 µM (inactive)
[13]
  GI50: 59.7 µM (inactive)
[14]
  GI50: 58.7 µM (inactive)
[15]
  GI50: > 100 µM (inactive)
[16]
  GI50: 53.2 µM (inactive)
[17]
  GI50: > 100 µM (inactive)

## c1ccc2c(c1)Nc1c3ccccc3nc3cccc-2c13
[1]
  GI50: 1.6 µM (inactive)
[20]
  GI50: 1.02 µM (active)
[2]
  GI50: 1.05 µM (active)
[3]
  GI50: 2.51 µM (inactive)
[4]
  GI50: 0.818 µM (active)
[5]
  GI50: 1.43 µM (inactive)
[6]
  GI50: 1.15 µM (inactive)
[7]
  GI50: 1.6 µM (inactive)
[8]
  GI50: 1.17 µM (inactive)
[9]
  GI50: 1.71 µM (inactive)
[18]
  GI50: 1.65 µM (inactive)
[10]
  GI50: 1.24 µM (inactive)
[11]
  GI50: 0.998 µM (active)
[12]
  GI50: 0.632 µM
[19]
  GI50: 0.157 µM (active)
[13]
  GI50: 0.386 µM (active)
[14]
  GI50: 0.968 µM (active)
[15]
  GI50: 1.48 µM (inactive)
[17]
  GI50: 1.73 µM (inactive)
